Experimental data as given in patent US12421280B2, “Insulin like growth factor binding protein bioactive peptide fragments” (Northwestern University, priority 2019, dated 2025).
Values joined by “and” are separate entries in the source; they are usually repeats but may differ in a detail not shown here. Equal entries are not always repeated.

Key:
Assay type in all cases: in vivo, rat
male SD rats = test: Porsolt forced swim test; settings: 1 hr post-dosing; for antidepressant-like effect in the Porsolt test as measured by floating time, compared with ketamine: 1 μg/kg i.v., FIG. 1A; for antidepressant-like effect in the Porsolt test (floating time), compared with IGFBP2: dose not specified, FIG. 2 legend; for antidepressant-like effect in the Porsolt test as measured by floating time, compared with IGFBP2: FIG. 2
Protocol: Adult male (2-3 month old) Sprague-Dawley (SD) rats were purchased from Harlan (USA) for the Porsolt Forced Swim Test. Rats were housed in Lucite cages with aspen wood chip bedding, maintained on a 12:12 light:dark cycle (lights on at 5 AM), and given ad libitum access to Purina lab chow (USA) and tap water throughout the study. All experiments were approved by the Sai Life Sciences (India) Animal Care and Use Committees.
Porsolt forced swim testing was conducted as described in (Burgdorf et al., Neuropsychopharmacology, (2013), 38(5):729-742). Rats were dosed with IGFBP1-7 (1 microgram/kg i.v.; peprotech, USA) (3 mg/kg, i.v.), ketamine ([…] i.v.; Sigma, USA) or 0.9% sterile saline vehicle (1 ml/kg, i.v.). Injections were made in the lateral tail vein and rats were tested 1 hr post-dosing. Animals were placed in a 46 cm tall×20 cm in diameter clear glass tube filled to 30 cm with tap water (23±1° C.) for 15 min on the first day (habituation) and 5 min on the subsequent test day. Water was changed after every other animal. Animals were videotaped, and tapes were scored offline by a blind experimenter with high inter-rater reliability (Pearson's r>0.9). Floating time (sec) was defined as the minimal amount of effort required to keep the animal's head above and diving (number of incidences) was registered when the whole body of the animal was submersed and the animal's head was facing towards the bottom of the tank.
Based on the results of the Porsolt test in Example 1, IGFBP2, IGFBP3, and IGFBP5 were identified as the best binding proteins for inducing robust antidepressant-like effects without side effects. Given the structural similarities between all 7 IGFBPs, an amino acid sequence homology was performed to identify sequences that were homologues between IGFBP2, IGFBP3, and IGFBP5 and were not consistently shared with IGFBP1, IGFBP6 and IGFBP7. Based on this analysis, three peptides were identified (KHGLYNLKQCKMSLNGQ (SEQ ID NO: 1); PKKLRP (SEQ ID NO: 2); RGD). These peptides were synthesized using standard solid phase peptide chemistry and were assessed in the Porsolt Test as described above.

rats [1] = test: Contextual fear extinction (model of PTSD); settings: 1 mg/kg IV one hour before the first extinction session
Protocol: (§1) These experiments were conducted as described in Burgdorf et al. (Int. J. Neuropsychopharmacol., 2017, 20:476-484).

rats [2] = test: Positive emotional learning: hedonic 50-kHz ultrasonic vocalizations during heterospecific play, with center crosses in the same assay; settings: 0.01, 0.1, 1, 10, and 30 mg/kg vs. vehicle, P<0.05
Protocol: as §1

[3] = Table 1 raw data, one value per rat, ketamine 10 mg/kg i.v., 5 min test session

Molecule: CNC1(c2ccccc2Cl)CCCCC1=O (stereo not drawn) [ket, ketamine, reference compound]
- diving (number of incidences) (male SD rats; [3]): 0 (6×) and 1
- floating (floating time) (male SD rats; [3]): 30.5 s and 55 s and 79.5 s and 31.2 s and 59.3 s and 78.1 s and 39.6 s

Molecule: IGFBP3: insulin-like growth factor binding protein 3 (peprotech, USA)
- antidepressant-like effect in the Porsolt test as measured by floating time, compared with ketamine (male SD rats; ketamine 10 mg/kg i.v.): equivalent antidepressant-like effect as ketamine
- floating (floating time) (male SD rats; Table 1 raw data, one value per rat, IGFBP 1 μg/kg i.v., 5 min test session, listed as BP3): 29.3 s and 35.8 s and 42.8 s and 23.3 s and 84.9 s and 140.5 s and 142.3 s

Molecule: IGFBP5: insulin-like growth factor binding protein 5 (peprotech, USA)
- antidepressant-like effect in the Porsolt test as measured by floating time, compared with ketamine (male SD rats; ketamine 10 mg/kg i.v.): equivalent antidepressant-like effect as ketamine
- floating (floating time) (male SD rats; Table 1 raw data, one value per rat, IGFBP 1 μg/kg i.v., 5 min test session, listed as BP5): 14.4 sec and 104.6 sec and 55 sec and 8.4 sec and 27.7 sec (2×) and 25.7 sec

Molecule: IGFBP7: insulin-like growth factor binding protein 7 (peprotech, USA)
- antidepressant-like effect in the Porsolt test as measured by floating time, compared with ketamine (male SD rats; ketamine 10 mg/kg i.v.): equivalent antidepressant-like effect
- floating (floating time) (male SD rats; Table 1 raw data, one value per rat, IGFBP 1 μg/kg i.v., 5 min test session, listed as BP7): 24.5 s and 123.8 s and 52.5 s and 94.4 s and 9.8 s and 30.8 s and 60.1 s

Molecule: KHGLYNLKQCKMSLNGQ [made by solid phase peptide chemistry]
- antidepressant-like effect in the Porsolt test (floating time), compared with IGFBP2 (male SD rats): equivalent antidepressant-like effect as IGFBP2
- floating (floating time) (male SD rats; Table 2 raw data, one value per rat, dose 54 (low dose, unit not given), listed as KH . . .): 29.2 s and 26.5 s and 25.2 s and 24.2 s and 43.3 s and 33.4 s and 53.8 s and 27.4 s
- floating (floating time) (male SD rats; Table 2 raw data, one value per rat, dose 540 (high dose, unit not given), listed as KH . . .): 108.7 s and 94.8 s and 121.4 s and 149.1 s and 101.5 s and 105.8 s and 130 s and 147.9 s
- antidepressant-like effect in the Porsolt test as measured by floating time, compared with IGFBP2 (male SD rats; low dose): equivalent or superior antidepressant-like effect

Molecule: PKKLRP [made by solid phase peptide chemistry]
- spontaneous recovery (difference in freezing 14 days post dosing versus extinction session 6) (rats [1]; FIG. 3D): increased
- contextual fear extinction across each test day (rats [1]; sessions 1-6 drug vs. vehicle, P<0.05, FIG. 3C): increased contextual fear extinction
- antidepressant-like effect in the Porsolt test (floating time), compared with IGFBP2 (male SD rats): equivalent antidepressant-like effect as IGFBP2
- floating (floating time) (male SD rats; Table 2 raw data, one value per rat, dose 20 (low dose, unit not given), listed as PK . . .): 16.6 s and 6.6 s and 10.2 s and 26.2 s and 18.2 s and 15.5 s and 22.4 s and 7.6 s
- floating (floating time) (male SD rats; Table 2 raw data, one value per rat, dose 200 (high dose, unit not given), listed as PK . . .): 17.3 s and 4.3 s and 47.8 s and 9 s and 18.4 s and 45.6 s and 2.3 s and 7.7 s
- antidepressant-like effect in the Porsolt test as measured by floating time, compared with IGFBP2 (male SD rats; high dose): equivalent or superior antidepressant-like effect
- antidepressant-like effect in the Porsolt test as measured by floating time, compared with IGFBP2 (male SD rats; low dose): equivalent or superior antidepressant-like effect
- center crosses (index of an anxiolytic drug effect) (rats [2]; FIG. 3B): increased
- positive emotional learning (rates of hedonic ultrasonic vocalizations during heterospecific play) (rats [2]; 1 hr post dosing, FIG. 3A): increased positive emotional learning

Molecule: RGD
- floating (floating time) (male SD rats; Table 2 raw data, one value per rat, dose 9 (unit not given)): 115.4 s and 132.9 s and 113.1 s and 125.8 s and 108.2 s and 140.6 s and 139.7 s and 127.8 s
- floating (floating time) (male SD rats; Table 2 raw data, one value per rat, dose 90 (unit not given)): 137 s and 169 s and 132.7 s and 133.6 s and 81.6 s and 143.4 s and 149.6 s and 123.7 s

B1: IGFBP2: insulin-like growth factor binding protein 2 (peprotech, USA); positive control in Example 2 (protein, UniProt P18065 36-325, looked up)
Insulin-like growth …: AEVLFRCPPCTPERLAACGPPPVAPPAAVAAVAGGARMPCAELVREPGCGCCSVCARLEGEACGVYTPRCGQGLRCYPHPGSELPLQALVMGEGTCEKRRDAEYGASPEQVADNGDDHSEGGLVENHVDSTMNMLGGGGSAGRKPLKSGMKELAVFREKVTEQHRQMGKGGKHHLGLEEPKKLRPPPARTPCQQELDQVLERISTMRLPDERGPLEHLYSLHIPNCDKHGLYNLKQCKMSLNGQRGECWCVNPNTGKLIQGAPTIRGDPECHLFYNEQQEARGVHTQRMQ
- antidepressant-like effect in the Porsolt test as measured by floating time, compared with ketamine (male SD rats; ketamine 10 mg/kg i.v.): equivalent antidepressant-like effect as ketamine
- floating (floating time) (male SD rats; Table 1 raw data, one value per rat, IGFBP 1 μg/kg i.v., 5 min test session, listed as BP2): 59.8 s and 45.5 s and 41.6 s and 43.5 s and 25.7 s and 68.2 s and 83.6 s
- floating (floating time) (male SD rats; Table 2 raw data, one value per rat, positive control IGFBP2, dose not given, listed as BP2): 37.2 s and 67.1 s and 22 s and 35.6 s and 28.2 s and 65.8 s and 44.3 s and 79.1 s

B2: IGFBP6: insulin-like growth factor binding protein 6 (peprotech, USA) (protein, UniProt P24592 28-240, looked up)
Insulin-like growth …: RCPGCGQGVQAGCPGGCVEEEDGGSPAEGCAEAEGCLRREGQECGVYTPNCAPGLQCHPPKDDEAPLRALLLGRGRCLPARAPAVAEENPKESKPQAGTARPQDVNRRDQQRNPGTSTTPSQPNSAGVQDTEMGPCRRHLDSVLQQLQTEVYRGAQTLYVPNCDHRGFYRKRQCRSSQGQRRGPCWCVDRMGKSLPGSPDGNGSSSCPTGSSG
- antidepressant-like effect in the Porsolt test as measured by floating time, compared with ketamine (male SD rats; ketamine 10 mg/kg i.v.): equivalent antidepressant-like effect
- floating (floating time) (male SD rats; Table 1 raw data, one value per rat, IGFBP 1 μg/kg i.v., 5 min test session, listed as BP6): 25.6 s and 36.6 s and 10.9 s and 45 s and 27.2 s and 35.5 s and 36.3 s

B3: IGFBP1: insulin-like growth factor binding protein 1 (peprotech, USA) (protein, UniProt P08833 26-259, looked up)
Insulin-like growth …: APWQCAPCSAEKLALCPPVSASCSEVTRSAGCGCCPMCALPLGAACGVATARCARGLSCRALPGEQQPLHALTRGQGACVQESDASAPHAAEAGSPESPESTEITEEELLDNFHLMAPSEEDHSILWDAISTYDGSKALHVTNIKKWKEPCRIELYRVVESLAKAQETSGEEISKFYLPNCNKNGFYHSRQCETSMDGEAGLCWCVYPWNGKRIPGSPEIRGDPNCQIYFNVQN
- floating (floating time) (male SD rats; Table 1 raw data, one value per rat, IGFBP 1 μg/kg i.v., 5 min test session, listed as BP1): 156.8 s and 143.4 s and 67.5 s and 179.1 s and 130.7 s and 96.8 s and 187.9 s

B4: IGFBP4: insulin-like growth factor binding protein 4 (peprotech, USA) (protein, UniProt P22692 22-258, looked up)
Insulin-like growth …: DEAIHCPPCSEEKLARCRPPVGCEELVREPGCGCCATCALGLGMPCGVYTPRCGSGLRCYPPRGVEKPLHTLMHGQGVCMELAEIEAIQESLQPSDKDEGDHPNNSFSPCSAHDRRCLQKHFAKIRDRSTSGGKMKVNGAPREDARPVPQGSCQSELHRALERLAASQSRTHEDLYIIPIPNCDRNGNFHPKQCHPALDGQRGKCWCVDRKTGVKLPGGLEPKGELDCHQLADSFRE
- floating (floating time) (male SD rats; Table 1 raw data, one value per rat, IGFBP 1 μg/kg i.v., 5 min test session, listed as BP4): 32.4 s and 137.2 s and 175.7 s and 189.5 s and 59 s and 64.7 s and 172.9 s
